The values that follow come from patent publication US11612604B2, “Methods of treating cancer with PLK4 inhibitors” (LUDWIG INSTITUTE FOR CANCER RESEARCH LTD, priority 2017, dated 2023).

For assay [1], the system named is control cell lines (HepG2, BT-12, BT-16, SK-ES-1, A673). Briefly: Proliferation (12-day passaging) assay, control cell lines. Particulars: 150 nM centrinone, 12 days, five control cell lines. The class given is cell-based. On the procedure:
(§1) All 6 of the neuroblastoma cell lines grew robustly in the presence of DMSO in 12-day passaging assays.
(§2) Plated cell numbers were adjusted to the cell line characteristics (doubling time and cell size). At 96-hour intervals, plates were harvested, counted and re-plated at 25,000-150,000 cells/plate. Cell counting was performed using a TC20 automated cell counter (Bio-Rad).

For assay [2], the system named is CHP134 cells and CHP134 clones with varying TRIM37 levels. As to the kind of experiment: ATPlite cellular proliferation assay in CHP134 clones. The class given is cell-based. Particulars: 5 days in 125 nM centrinone, WT CHP134 cells. On the procedure:
After CRISPR targeting, CHP134 clones with varying TRIM37 copy numbers were isolated and the levels of TRIM37 protein were measured by quantitative western blotting. Alpha-tubulin was used as a blotting control. Clones with TRIM37 levels between 12 and 64% of the levels in the WT cell line were isolated. […] Results are expressed as the percent of the value for the equivalent DMSO-treated control and are plotted versus measured TRIM37 protein level. […] Thus, for centrinone-treated CHP134 cells, mitotic success and cell viability both decreased as TRIM37 levels increased.
In general terms: In ATP-based viability assays light output follows the ATP content of the culture.

Assay [3] concerns caspase-3/7 activity in 'Sensitive' neuroblastoma and 'Not Sensitive' (RPE1, BT-12, BT-16) cell lines. Briefly: Caspase activation assay. The class given is cell-based. To be noted: 150 nM centrinone, four cell cycle durations.
Assay [4] relates to RPE1 cells and primary cell cultures. Particulars: cited from earlier work.
Assay [5] deals with CHP134 cells harboring the G95L mutant PLK4. Briefly: Proliferation (passaging) assay, CHP134 cells with G95L mutant PLK4. The class given is cell-based. To be noted: 150 nM centrinone. The method, then: as §1
(§3) Cell lines: Cells were maintained in ATCC-recommended complete growth media with 100 U/mL penicillin and 100 μg/mL streptomycin at 37° C. and 5% CO2. The RPE-1 TRIM37Δ knockout cell line was previously described (Meitinger et al., 2016). The CHP134 and HCT116 TRIM37Δ knockout cell lines were generated by transfection and nucleofection, respectively, of preassembled RNPs using a TRIM37 specific gRNA ([…]). The CHP134 G95L cell line was generated as previously described (Wong et al., 2015). For generation of H2B-mRFP expressing cell lines, cells were infected with a H2B-mRFP expressing lentiviral construct (Meitinger et al., 2016). Populations of each cell line expressing H2B-mRFP were enriched by FACS. To knock down TP53 (p53), cells were infected with a lentivirus containing sh-p53 made using the plasmid shp53 pLKO.1 puro (Godar et al., Cell. 134:62-73 (2008)). Positive selection of sh-p53 expressing cells was performed 2 days after infection with 10 μg/ml puromycin.
as §2

For assay [6], the system named is breast cancer cell lines (BT474, MCF7, MDA-MB-231). As to the kind of experiment: Proliferation (passaging) assay, breast cancer cell lines. The class given is cell-based. To be noted: 150 nM centrinone, BT474 and MCF7 (TRIM37 locus amplified). The method, then:
Sensitivity to centrosome removal correlated with TRIM37 copy number in breast cancer as well. FIG. 3A is a graph plotting TRIM37 copy number versus expression level for breast cancer cell lines (data from the CCLE database; (Barretina et al., 2012)).
as §2

For assay [7], the system named is neuroblastoma cell lines (SH-SY5Y, CHP134, IMR32, CHP212, SK-N-SH, SK-N-F1). As to the kind of experiment: Proliferation (12-day passaging) assay, neuroblastoma cell lines. The class given is cell-based. Particulars: 150 nM centrinone, 12 days, all 6 neuroblastoma cell lines. The method, then: as §1, §2
Assay [8] has as its system CHP134 cells in which TRIM37 was deleted, p53 was knocked down, or both. As to the kind of experiment: Proliferation (12-day passaging) assay, CHP134 TRIM37 deletion / p53 knockdown cells. The class given is cell-based. On the procedure: as §3, §2
Assay [9] deals with RPE1, BT-12, BT-16, CHP212, CHP134 and SK-N-F1 cells. Briefly: Assessing mitotic phenotypes and mitotic duration by live cell imaging. The class given is cell-based. Particulars: for rates of anaphase failure and/or cell death during mitosis: three cell cycles in 150 nM centrinone. On the procedure:
To examine the effects of centrosome removal, progression through mitosis after centrosome depletion was analyzed in three control cell lines with low TRIM37 levels (RPE1, BT-12 and BT-16), and in the three cell lines with the highest TRIM37 levels (CHP212, CHP134 and SK-N-F1). All of the tested cell lines, with the exception of SK-N-F1, were p53+.
For cells that completed mitosis, the inventors measured mitotic duration to determine if they would be likely to die due to tripping the mitotic duration sensor. […] The mean duration of mitosis in control SK-N-F1 cells, a p53− neuroblastoma cell line, was longer (104.7 minutes).
Assessing mitotic phenotypes: First, the cell cycle duration of the indicated cell lines was determined for each cell line by imaging cells expressing H2B-mRFP for 48-72 hours. The mean time from the beginning the first mitosis (nuclear envelope breakdown) until the beginning of the second mitosis in each daughter cell was the cell line specific cell cycle duration. […] Cells were seeded into 96-well polystyrene plates at 10,000 cells/well, 14-16 hours before imaging. Images were acquired on a CQ1 spinning disk confocal systems (Yokogawa Electric Corporation) with an Olympus UPLSAPO40 X 40×0.95 objective and 2560×2160 sCMOS camera (Andor) at 37° C. and 5% CO2 at 2×2 binning. Image acquisition and data analysis were performed using CellVoyager software and ImageJ, respectively. 12-24 fields/well were imaged. 5×2 μm z-sections in RFP (25% power, 150 ms) channels were captured in each field at 4-minute intervals for 24 hours. Mitotic duration was measured as the interval between nuclear envelope breakdown and chromosome decondensation. Mitotic phenotypes were categorized into ‘bipolar’, ‘multipolar’, ‘cell death during mitosis’ and ‘anaphase failure’.

Turning to `COc1c(Nc2cc(C)[nH]n2)nc(Sc2ccc(S(=O)(=O)Cc3cccc([N+](=O)[O-])c3F)cc2F)nc1N1CCOCC1` [centrinone], the “proliferation in passaging assay” value is recorded as “continued to proliferate” in assay [1]; “proliferated in centrinone at a rate comparable to non-mutant cells in DMSO” in assay [5]; “robust proliferation in centrinone” in assay [8] (centrinone, CHP134 with TRIM37 deleted and p53 knocked down). The “cellular proliferation (ATPlite), percent of DMSO-treated control” value in assay [2] is listed as “loss in proliferation comparable to that of the two highest mutant clones”. Also, the caspase activity entry in [3] ('Not Sensitive' cell lines (RPE1, BT-12, BT-16)) was “relatively low levels”; in assay [3] (three 'Sensitive' neuroblastoma cell lines), “high levels of caspase activity”. Further, the “response to centrinone-induced centrosome loss” value in assay [4] (RPE1 cells and 3 primary cell cultures with intact p53 pathway (Wong et al.)) is “stabilize p53 and arrest in G1”. Also, the “effect on centriole duplication” value in assay [4] (centrinone treatment (Wong et al.)) is given as “blocks centriole duplication”. In addition, in [6], the “sensitivity to centrosome removal in passaging assay” value is recorded as “highly sensitive”. Further, the “cell number in passaging assay” value in [7] is “cell number rapidly declined to zero”. Besides, the “proliferation in 12-day passaging assay” value is listed as “allowed CHP134 cells to proliferate” in assay [8] (centrinone, CHP134 with shRNA-mediated knockdown of p53) and “enabled their proliferation” in assay [8] (centrinone-treated CHP134, TRIM37 deletion). In addition, the “mean duration of mitosis after centrosome removal” value in [9] (CHP134) is 257 min; in assay [9] (CHP212), 221 min. Besides, in assay [9] (CHP134, absence of centrioles (FIG. 5A)), the “cells that fail to segregate their chromosomes” value is given as “about 36%”. Moreover, the mitotic duration result in [9] (control RPE1 cells and RPE1 TRIM37Δ reconstituted with wild-type TRIM37, after centrinone) is given as “substantial increase in mitotic duration”. For the same compound, the “rates of anaphase failure and/or cell death during mitosis” value in assay [9] (cell lines with high TRIM37 levels (CHP212, CHP134, SK-N-F1)) is 31-74%; in [9] (three cell lines with low TRIM37 levels (RPE1, BT-12, BT-16)) it was 3-14%.
